Reference: patent US20050159599A1, “Cyclic compound, process for producing the same, and pest control agent” (priority 2002, published 2005)
Read-outs that look alike come from different tables or passages of the source.

Legend:
Format in all cases: in vivo
[1] = test system: Plutella xylostella; assay: Insecticidal effect for Plutella xylostella by immersion treatment of host crop (Test Example 1); conditions: cabbage leaf dipped, second-instar larvae of Plutella xylostella, fifth day after; for pest or weed control at 100 ppm: foliar, 120 h, read-out: rate of dead pests (%); for rate of dead pests (%): 100 ppm
Protocol: Insecticidal Effect for Plutella xylostella by Immersion Treatment of Host Crop One true leaf of 7 to 8-leave stage cabbage was cut off and dipped in a pesticidal solution for a few seconds, which was prepared by dissolving 5 mg of test compound (represented by the compound Nos. in the above Examples) in 0.5 ml of acetone containing Tween 20 (trade name) and then diluting it to the prescribed concentration (100 ppm) with Dain (trade name, sticker) water diluted 5000-fold. After drying the pesticidal solution, the leaf was put into an ice cream cup (180 ml), and ten second-instar larvae of Plutella xylostella were set free therein. The cup was left in a temperature-controlled breeding room (24° C.). On the fifth day after, the number of surviving Plutella xylostella was examined. The rate of dead pests was calculated by the following formula. rate of dead pests (%)=(number of dead pests/number of test pests)×100

[2] = test system: Spodoptera litura; assay: Insecticidal effect for Spodoptera litura by spraying treatment to host crop (Test Example 2); conditions: 100 ppm, sprayed on soybean, third-instar larvae of Spodoptera litura, fifth day after; for pest or weed control at 100 ppm: 120 h, read-out: rate of dead pests (%)
Summary of the method: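 Ten third-instar larvae held at 25° C. on two excised primary soybean leaves previously sprayed to dripping with 100 ppm test solution. Mortality (%) calculated from dead versus tested larvae on the fifth day.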

[3] = test system: Plutella xylostella; assay: Insecticidal effect for Plutella xylostella by immersion treatment of host crop root (Test Example 3); conditions: for pest or weed control at 25 ppm: Plutella xylostella, 120 h, read-out: rate of dead pests (%)
Protocol: Insecticidal Effect for Plutella xylostella by Immersion Treatment of Host Crop Root
Roots of 4-leave stage cabbage was washed with tap water to remove soil, and then immersed in a pesticidal solution which was prepared by dissolving 5 mg of test compound (represented by the compound Nos. in the above Examples) in 0.5 ml of acetone containing Tween 20 (trade name) and then diluting it to the prescribed concentration (25 ppm) with ion-exchange water, and which was filled in a light-shielded Erlenmeyer flask (100 ml). On the fifth day after immersion of root, the root was cut off, and the stem and leaves were put into an ice cream cup (180 ml). Ten second-instar larvae of Plutella xylostella were set free therein, and the cup was left in a temperature-controlled breeding room (24° C.). On the fifth day after, the number of surviving Plutella xylostella was examined. The rate of dead pests was calculated by the following formula. rate of dead pests (%)=(number of dead pests/number of test pests)×100

[4] = test system: Spodoptera litura; assay: Insecticidal effect for Spodoptera litura by immersion treatment of host crop root (Test Example 4); conditions: 25 ppm, soybean root immersion 5 days, second-instar larvae of Spodoptera litura, fifth day after; for pest or weed control at 25 ppm: 120 h, read-out: rate of dead pests (%)
Summary of the method: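 Soil was washed from the roots of soybean plants at the primary-leaf stage, and the roots were immersed in a pesticidal solution held in a light-shielded 100 ml Erlenmeyer flask. The solution was made from acetone containing Tween 20, diluted with ion-exchange water. Five days after root immersion, two primary leaves were cut and placed in a 180 ml cup with ten second-instar Spodoptera litura larvae, then kept at 25° C. Survivors were counted five days later. The rate of dead pests (%) was calculated as dead pests divided by test pests, times 100.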

[5] = 25 ppm, cabbage root immersed 5 days, ten second-instar larvae on stem and leaves, counted on the fifth day, 24° C.

SMILES	rate of dead pests (%) [2] [%]	rate of dead pests (%) [3, 5] [%]	rate of dead pests (%) [4] [%]	also measured
O=C(c1c(F)cccc1F)N1CN=CN(c2cc(Cl)c(F)c(Cl)c2F)C1=O [V-4, 1-(3,5-dichloro-2,4-difluorophenyl)-3-(2,6-difluorobenzoyl)-3,4-dihydro-1,3,5-triazin-2(1H)-one]				pest or weed control at 100 ppm [1]: 100%; pest or weed control at 100 ppm [2]: 100%; pest or weed control at 25 ppm [3, 5]: 95%
O=C(c1c(F)cccc1F)N1COCN(c2ccc([S+]([O-])C(F)(F)F)c(Cl)c2)C1=O (stereo not drawn) [I-78]	100	90	100	
O=C(c1c(F)cccc1F)N1COCN(c2ccc([S+]([O-])C(F)(F)C(F)(F)F)cc2F)C1=O (stereo not drawn) [I-129, 3-(2,6-difluorobenzoyl)-5-[2-fluoro-4-(1,1,2,2,2-pentafluoroethylsulfinyl)phenyl]tetrahydro-4H-1,3,5-oxadiazin-4-one]				pest or weed control at 100 ppm [2]: 100%; pest or weed control at 25 ppm [3, 5]: 100%; pest or weed control at 25 ppm [4]: 100%
O=C(c1c(F)cccc1F)N1COCN(c2ccc([S+]([O-])C(F)(F)C(F)(F)C(F)(F)F)cc2F)C1=O (stereo not drawn) [I-144, 3-(2,6-difluorobenzoyl)-5-[2-fluoro-4-(1,1,2,2,3,3,3-heptafluoro-1-propylsulfinyl)phenyl]tetrahydro-4H-1,3,5-oxadiazin-4-one]				pest or weed control at 25 ppm ([3]; in Brassica oleracea): 95%
CS(=O)(=O)N1CN(C(=O)c2c(F)cccc2F)C(=O)N(c2cc(Cl)c(F)c(Cl)c2F)C1 [III-58]	100	90	100	rate of dead pests (%) [1]: 100%
O=C(c1c(F)cccc1F)N1COCN(c2c(F)cc([S+]([O-])C(F)(F)F)cc2F)C1=O (stereo not drawn) [I-105]	100	100	100	
Cc1cc(N2COCN(C(=O)c3c(F)cccc3Cl)C2=O)ccc1[S+]([O-])C(F)(F)F (stereo not drawn) [I-249]	100	95		
O=C(c1c(F)cccc1F)N1COCN(c2ccc([S+]([O-])C(F)(F)C(F)F)cc2F)C1=O (stereo not drawn) [I-23]	100	95	100	
O=C(c1c(F)cccc1F)N1COCN(c2ccc([S+]([O-])C(F)(F)F)c(F)c2)C1=O (stereo not drawn) [I-81]	100	100		rate of dead pests (%) [1]: 100%
O=C(c1c(F)cccc1F)N1COCN(c2ccc(SC(F)F)cc2F)C1=O [I-41, 3-(2,6-difluorobenzoyl)-5-[4-(difluoromethylthio)-2-fluorophenyl]tetrahydro-4H-1,3,5-oxadiazin-4-one]				pest or weed control at 100 ppm [1]: 100%; pest or weed control at 100 ppm [2]: 100%; pest or weed control at 25 ppm [3, 5]: 100%; pest or weed control at 25 ppm [4]: 100%
Cc1cc(N2COCN(C(=O)c3c(F)cccc3F)C2=O)ccc1SC(F)(F)F [I-71]	100	95	90	
CN1CN(C(=O)c2c(F)cccc2F)C(=O)N(c2ccc([S+]([O-])C(F)F)cc2F)C1 (stereo not drawn) [III-152, 1-(2,6-difluorobenzoyl)-3-[4-(difluoromethylsulfinyl)-2-fluorophenyl]-5-methyltetrahydro-1,3,5-triazin-2(1H)-one]				pest or weed control at 100 ppm [1]: 100%; pest or weed control at 100 ppm [2]: 100%; pest or weed control at 25 ppm [3, 5]: 100%; pest or weed control at 25 ppm [4]: 100%
Cc1cc([S+]([O-])C(F)(F)F)c(F)cc1N1COCN(C(=O)c2c(F)cccc2F)C1=O (stereo not drawn) [I-126]	100	100		
Cc1c(N2COCN(C(=O)c3c(F)cccc3F)C2=O)ccc([S+]([O-])C(F)(F)F)c1Cl (stereo not drawn) [I-123]	100	100		
O=C(c1c(F)cccc1F)N1COCN(c2ccc(SCC(F)(F)F)cc2F)C1=O [I-34]	100	100		rate of dead pests (%) [1]: 100%
O=C(c1c(F)cccc1Cl)N1COCN(c2ccc([S+]([O-])C(F)(F)F)cc2F)C1=O (stereo not drawn) [I-222]	100	100	100	rate of dead pests (%) [1]: 100%
CSc1ccc(N2COCN(C(=O)c3c(F)cccc3F)C2=O)c(F)c1 [I-28]	100	100	100	rate of dead pests (%) [1]: 100%
O=C(c1c(F)cccc1F)N1COCN(c2ccc([S+]([O-])C(F)(F)F)cc2Cl)C1=O (stereo not drawn) [I-75]	100	95	100	
O=C(c1c(F)cccc1Cl)N1COCN(c2ccc([S+]([O-])C(F)(F)C(F)(F)C(F)(F)F)cc2F)C1=O (stereo not drawn) [I-321]	100	95	100	
O=C(c1c(F)cccc1F)N1COCN(c2c(F)cc([S+]([O-])C(F)(F)F)cc2Cl)C1=O (stereo not drawn) [I-102]	100	100		
Cc1c(N2COCN(C(=O)c3c(F)cccc3F)C2=O)ccc([S+]([O-])C(F)(F)F)c1C (stereo not drawn) [I-84]	100	100		
Cc1cc(N2COCN(C(=O)c3c(F)cccc3F)C2=O)ccc1[S+]([O-])C(F)(F)F (stereo not drawn) [I-72]	100	100		
O=C(c1c(F)cccc1F)N1COCN(c2ccc([S+]([O-])C(F)(F)C(F)Cl)cc2F)C1=O (stereo not drawn) [I-8]	100	100	100	rate of dead pests (%) [1]: 100%
CC(=O)N1CN(C(=O)c2c(F)cccc2F)C(=O)N(c2ccc([S+]([O-])C(F)F)cc2F)C1 (stereo not drawn) [III-153]	100	100	100	rate of dead pests (%) [1]: 100%
O=C(c1c(F)cccc1F)N1COCN(c2cc(F)c([S+]([O-])C(F)(F)F)cc2F)C1=O (stereo not drawn) [I-111]	100	100		
O=C(c1c(F)cccc1F)N1CNCN(c2ccc([S+]([O-])C(F)(F)C(F)Cl)cc2F)C1=O (stereo not drawn) [III-91]	100	100	95	
Cc1cc([S+]([O-])C(F)(F)F)ccc1N1COCN(C(=O)c2c(F)cccc2F)C1=O (stereo not drawn) [I-69]	100	100		
CS(=O)(=O)N1CN(C(=O)c2c(F)cccc2F)C(=O)N(c2ccc([S+]([O-])C(F)F)cc2F)C1 (stereo not drawn) [III-154]	100	100	100	
O=C(c1c(F)cccc1F)N1COCN(c2ccc([S+]([O-])C(F)(F)C(F)Cl)cc2Cl)C1=O (stereo not drawn) [I-14]	100	100	100	
